How the values were obtained:
Acute Toxicity Test = conditions: mouse, in vivo; male mice, oral administration
Description: The test compounds were administered orally to the mice and LD50 (mg/kg) of the compounds was determined.

bastard dog = assay: Increasing effect of cerebral blood flow; type: in vivo; conditions: dosage 100 μg/kg, profunda femoris vein
Description: Thus, a bastard dog (male, 12-20 kg of body weight) was fixed in a prone (position) and was anesthetized with 20 mg/kg of pentobarbital sodium and made forced breathing to kept the frequency of respiration at 20 times/minutes. Then, the skull was bared and the surface bone was removed to expose the venous sinus by using grinder and the venous blood was took out from the venas which was cannulizated. The amount of venous blood flow was measured by using an electromagnetic blood flow meter and next measured by using drop-counter by measuring the number of drops of blood per 10 seconds.
The increasing effect of cerebral blood flow was calculated by comparing the number of blood drops in 30 seconds at the peak of increasement shown before and after the administration of compound to be tested. The each of compounds to be tested was dissolved in dimethylformamide and diluted with physiological saline solution and administered through a cannule being inserted into the profunda femoris vein.

[1] = target: T1, cyclic AMP phosphodiesterase (Oryctolagus cuniculus, UniProt G1ST54); assay: Obstructive action against cyclic AMP phosphodiesterase; type: biochemical; conditions: rabbit platelet enzyme, 30° C., 20 minutes
T1 construct: the supernatant was collected to use it as a crude enzyme solution; from tissue; host or cells: rabbit platelets (from platelet-rich plasma)
T1 sequence (G1ST54 1-1128): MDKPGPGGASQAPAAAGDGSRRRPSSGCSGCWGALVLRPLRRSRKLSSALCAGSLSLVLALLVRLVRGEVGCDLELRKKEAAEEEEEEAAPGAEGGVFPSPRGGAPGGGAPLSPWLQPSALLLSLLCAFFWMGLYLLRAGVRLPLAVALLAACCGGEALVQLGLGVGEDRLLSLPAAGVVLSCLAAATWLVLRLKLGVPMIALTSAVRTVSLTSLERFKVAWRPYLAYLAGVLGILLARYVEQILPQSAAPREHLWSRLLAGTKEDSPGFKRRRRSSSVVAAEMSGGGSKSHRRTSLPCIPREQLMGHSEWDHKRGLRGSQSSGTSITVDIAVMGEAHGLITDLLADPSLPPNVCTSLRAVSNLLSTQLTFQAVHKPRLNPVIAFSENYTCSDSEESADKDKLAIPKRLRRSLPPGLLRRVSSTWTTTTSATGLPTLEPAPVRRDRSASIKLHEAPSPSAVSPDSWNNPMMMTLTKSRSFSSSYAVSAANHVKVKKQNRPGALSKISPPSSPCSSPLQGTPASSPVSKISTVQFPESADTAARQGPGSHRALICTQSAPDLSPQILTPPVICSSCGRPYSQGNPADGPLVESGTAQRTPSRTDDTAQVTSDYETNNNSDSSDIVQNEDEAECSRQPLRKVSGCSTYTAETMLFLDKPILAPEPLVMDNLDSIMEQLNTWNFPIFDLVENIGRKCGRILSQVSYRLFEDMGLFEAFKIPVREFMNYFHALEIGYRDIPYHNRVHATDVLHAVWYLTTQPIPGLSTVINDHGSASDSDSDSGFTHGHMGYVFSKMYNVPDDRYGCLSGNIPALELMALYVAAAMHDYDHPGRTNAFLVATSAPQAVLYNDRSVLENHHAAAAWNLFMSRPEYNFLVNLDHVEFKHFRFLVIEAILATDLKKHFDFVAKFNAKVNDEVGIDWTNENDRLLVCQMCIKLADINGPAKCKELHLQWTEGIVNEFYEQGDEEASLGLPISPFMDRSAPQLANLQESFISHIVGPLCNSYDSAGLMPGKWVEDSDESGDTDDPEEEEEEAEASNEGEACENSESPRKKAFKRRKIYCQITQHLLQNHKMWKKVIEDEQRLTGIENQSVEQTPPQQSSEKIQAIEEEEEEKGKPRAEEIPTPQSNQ
Description: That is, for determining the obstructive activity against cyclic AMP phosphodiesterase, 10 ml of a solution obtained by adding 1 mmol of MgCl2 into 50 mmol of tris-hydrochloric acid buffer with pH 7.4 was added to the platelets obtained by further centrifuging the above-said rabbit PRP at 3,000 r.p.m. for 10 minutes, and the suspended platelets were ground by a Teflon potter type homogenizer. This was followed by two times of freezing and thawing treatment and 300-second fracturing with 200 watt supersonic waves. After additional 60-minute centrifugation with 100,000 G, the supernatant was collected to use it as a crude enzyme solution.
10 Milliliters of this crude buffer solution was added to a 1.5×20 cm DEAE-cellulose column which has previously been buffered with 50 mM of tris-acetate buffer (pH 6.0), followed by washing and elution with 30 ml of 50 mM tris-acetate buffer, and this buffer solution was subjected to linear gradient elution with 0 to 0.5 moles of sodium acetate-tris-acetatebuffer (total amount of elute was 300 ml.). The flow rate was 0.5 ml/min, and 5 ml of each fraction was batched out. […] This fraction was used as cyclic AMP phosphodiesterase.
0.1 Milliliter of an aqueous solution of each test compound of a specified concentration was mixed with 40 mmol of tris-hydrochloric acid buffer (pH 8.0, containing 50 μg of cow serum albumin and 4 mmol of MgCl2) containing predetermined 1.0 μmol of cyclic AMP (tritium cyclic AMP), and 0.2 ml of this mixed solution was used as substrate solution.
0.2 Milliliter of the above-prepared cyclic AMP phosphodiesterase of a predetermined concentration was added to said substrate solution and the mixture was reacted at 30° C. for 20 minutes, producing tritium 5'-AMP from the tritium cyclic AMP.
The reaction system was then immersed in boiling water for 2 minutes to stop the reaction, and then this reaction solution was cooled in ice water and, for converting the produced tritium 5'-AMP into tritium adenosine, the solution was added with 0.05 ml (1 mg/ml) of snake poison as 5'-nucleotidase and reacted at 30° C. for 10 minutes. The whole amount of this reaction solution was then added to a cation exchange resin (AG 500 W×4, 200-400 meshes, manufactured by Bio-Rad Co., column size: 0.5×1.5 cm), and the produced tritium anodesine alone was allowed to combine, washed with 6 ml of distilled water and eluted with 1.5 ml of 3 N-ammonia water. The whole quantity of the elutant was added with 10 ml of a triton-toluene type scintillator and the produced tritium adenosine was measured by a liquid scintillation counter to determine the phosphodiesterase activity.
In this way, the phosphodiesterase activation value (Vs) of the test compounds of the respective concentrations was determined, and the phosphodiesterase obstruction rate (%) was determined from said activation value (Vs) and control value (Vc) (obtained from water not containing any test compound) from the following formula: [formula] Known 1-methyl-3-isobutylxanthine was used as control.

With `O=C(CCCOc1ccc2[nH]c(=O)ccc2c1)N(CCO)C1CCCCC1` [No. 1, 6-{3-[N-(2-hydroxyethyl)-N-cyclohexylaminocarbonyl]propoxy}carbostyril] the LD50 (Acute Toxicity Test) was > 1000 mg/kg, the “Increasing effect of cerebral blood flow” value (bastard dog) was 89.8% and the IC50 [1] was 150 nM.

— patent publication US4435404A, “Carbostyril derivatives” (priority 1980, dated 1984)
